These results are taken from article PMC12667295, “A surrogate barrier model for high-throughput blood-brain barrier permeability prediction: integrating LLC-PK1-MOCK/MDR1 Cells and lysosomal trapping correction” (Drug Delivery, 2025).

Structures are written as SMILES. “And” between values parts separate entries of the source, which are not always exact repeats. Equal values may be shown once. Read-outs that look alike come from different tables or passages of the source.

The conditions of data set [1]: footnote a; ref Internal data; cited from earlier work.
The subject of data set [2] is P-gp (human MDR1). In words: Bidirectional transport across LLC-PK1-MDR1 monolayer stably expressing human MDR1 (P-gp) (Transwell).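 Also: 2 h incubation at 37 °C, receiver HBSS with 10 mM Hepes plus 1% BSA, LC-MS/MS of donor and receiver, recovery as receiver plus donor amount over initial donor amount.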 As to conditions: pig.
The conditions of data set [3]: cited from earlier work.
Data set [4] in a line: Bidirectional transport across LLC-PK1 MOCK monolayer (Transwell).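 Also: compound quantified by LC-MS/MS in donor and receiver wells, efflux ratio as B-A over A-B Papp, recovery relative to initial donor amount.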 As to conditions: pig.
Description: (§3) Cells were passaged at 80−90% confluence (every 2−3 days) using trypsin-EDTA solution. […] The culture medium was replaced every other day, including 200 µL culture medium in the apical and 850 µL cell culture medium in the basolateral side. LLC-PK1 MOCK cells were used at passages of 3−30. LLC-PK1-MDR1 cells were cultured and passaged in the same manner as LLC-PK1 cells except at the density of 1 × 10^4 cells per well. LLC-PK1-MDR1 cells were used at passages of 3−25. For LLC-PK1 MOCK cells and LLC-PK1-MDR1 cells, the experiments were performed on the 4th and 7th day after seeding.
(§4) Samples were collected from the donor well at the start of the incubation (50 µL) as C0, and from the donor and receiver wells at the end of the incubation (50 µL). All samples were stored at - 40 °C for LC-MS/MS analysis.
(§5) Bidirectional transport experiments. […] The transwell experiments were conducted following above-mentioned procedure. […] When the recovery rate of the tested drug is below 80%, the possibility of intracellular accumulation should be considered. The polycarbonate (PC) membrane where cells are grown should be carefully peeled off from the cell culture medium and placed in 100 µL of HBSS buffer solution. […] The process was carried out on ice to prevent heat-induced degradation, applying a power in the range of 300 W for a total duration of 20 minutes. Thereafter, a quantitative analysis of the intracellular drug was conducted, and the drug recovery rate was recalculated based on this analysis.
(§6) The apparent permeability coefficient (Papp, cm/s) was calculated for each transport direction, A-B and B-A, using the following equation: Papp=dQ/dt×1/A×C0 where dQ/dt is the permeation rate (µmol/s), A is the surface area of the insert (0.33 cm^2, Corning), and C0 is the initial donor concentration (µM).
(§7) The efflux ratio (ER) is calculated as the ratio of Papp (B-A)/Papp (A-B). Recovery=TRcumrf+Cdf×VD/Cdi×VD×100% Where TRcumrf is the cumulative transported mass in the receiver chamber at the end of the incubation (nmol), Cdf is the concentration of the drug in the donor chamber at the end of the incubation (μM), VD is the volume of the donor chamber (mL), and Cdi is the initial concentration of the drug in the donor chamber (μM).
(§8) The method of the bidirectional transport experiment was the same as before.
On the set-up of data set [5]: method as in Internal data. Conditions: footnote a; ref Internal data; cited from earlier work.
The nature of data set [6]: in vivo. Conditions: rat. The source says:
In vivo unbound brain distribution data (Kp,uu,Brain) for 16 drugs and total brain distribution data (Kp,Brain) for 16 drugs was acquired from literature. […] For each tested compound, fifteen rats were randomly divided into five groups of three rats each. […] The time of execution of the rats by CO2 inhalation after administration was optimized according to the in vivo elimination rate to achieve five concentrations of different time points. After the rats were euthanized, cardiac puncture was performed immediately to remove as much whole blood as possible (~7 ml) from the systemic circulation (Quantitatively aliquot 0.2 ml of whole blood for the determination of drug concentration in plasma). Afterwards, the brain tissue was collected immediately and rinsed repeatedly with ice-cold saline 3 times. Then, the surface saline was blotted dry with clean filter paper to remove as much residual drug in the blood vessels as possible. Plasma samples were prepared by centrifugation of the blood samples at 2,500 g for 10 minutes at 4 °C. All brain samples were homogenized by adding 4-fold volume water. All samples were stored at -40 °C before LC-MS/MS analysis. […] The brain tissue partition coefficient (Kp, brain) and brain-to-plasma unbound drug partition ratio (Kp,uu, brain) are calculated according to the following formulas, respectively: Kp,brain=AUC(0−∞,brain)/AUC(0−∞,plasma)Kp,uu,brain=Kp,brain×(fu,tissue/fu,plasma)
Free brain-to-plasma distribution coefficients (Kp,uu,brain) of 41 drugs. Brain distribution coefficients (Kp,uu,brain) were calculated for 41 drugs. […] Plasma and brain concentration-time profiles were generated, and AUC(0-t) values for both matrices were calculated using WinNolin 8.1. Kp,brain was derived as the ratio of brain-to-plasma AUC(0-t).
Kp,uu,brain values were computed by normalizing Kp,brain to unbound fractions (fu,plasma and fu,brain).

For data set [7], the system named is LLC-PK1-MDR1 cells.
Data set [8] concerns LLC-PK1-MDR1 cells. Put plainly: Bidirectional transport across LLC-PK1-MDR1 monolayer stably expressing human MDR1 (P-gp) (Transwell).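 Also: 2 h incubation at 37 °C, receiver HBSS with 10 mM Hepes plus 1% BSA, LC-MS/MS of donor and receiver, recovery as receiver plus donor amount over initial donor amount.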
Data set [9] is described as follows: in vitro. Conditions: pig, LLC-PK1 MOCK cell monolayer (Transwell), pH 7.4.
Description: as §3, §4, §5, §6, §7, §8
Data set [10] is described as follows: in vitro. Conditions: rat, brain homogenate. The protocol: (§1) Stocks (10 mM) of test compounds were diluted to 5 μM with plasma or tissue homogenate and dialyzed at 37 °C for 6 hours in a shaking incubator. After incubation aliquots of both plasma or tissue homogenate and buffer from the device were taken and added to equal volumes of blank buffer and plasma or tissue homogenate respectively. Samples were then diluted in acetonitrile containing an internal standard prior to centrifugation and analysis of the supernatants by LC-MS/MS. The fu, plasma was calculated using Equation 1:(1) fu,plasma=Concbuffer chamber/Concsample chamber
Rat fraction unbound in brain (fu, brain) was determined as the ratio of concentration in buffer to that in brain.
(§2) Unbound fractions of test drugs in plasma (fu,plasma) and brain tissue (fu,brain). For compounds with existing rat plasma or brain protein-binding data from literature or internal studies, values were directly adopted.

For data set [11], the system named is LLC-PK1 MOCK cells. In words: Bidirectional transport across LLC-PK1 MOCK monolayer (Transwell).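 Also: compound quantified by LC-MS/MS in donor and receiver wells, efflux ratio as B-A over A-B Papp, recovery relative to initial donor amount.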 Conditions: LLC-PK1 MOCK, 2 µM, 2 h, mean ± s, n = 3; BLQ = below 2 nM.
Description: as §3, §4, §5, §6, §7, §8
The subject of data set [12] is P-gp (human MDR1). Put plainly: in vitro. Conditions: pig, LLC-PK1, pH 7.4.
Data set [13] can be described thus: in vitro. Conditions: rat, plasma. On the procedure: as §1, §2
Data set [14] in a line: LLC-PK1 MOCK/MDR1 monolayer model, results stated for both cell lines jointly. Conditions: pig, LLC-PK1 MOCK and LLC-PK1-MDR1 cell monolayers (Transwell). The protocol:
Monitoring of TEER value and LY permeability. After the LLC-PK1 MOCK/MDR1 cells attach to the Transwell insert, TEER (Transepithelial Electrical Resistance) values were continuously recorded using a cell resistance meter (Beijing JINGONGHONGTAI Technology Co., Ltd). These TEER values represent the mean from six individual inserts (n = 6) measured per group. The TEER measurement and transport experiment were conducted at 37 °C, using a heating plate to maintain the required temperature. The transmembrane resistance was calculated using the formula TEER = (Rtotal-Rblank) × Aarea, where Rblank represents the TEER of the blank chamber.
The permeability of the Lucifer Yellow CH Dipotassium Salt (LY, 100 μM) across the monolayers was measured in apical-to-basolateral direction to monitor the integrity of the cell monolayer.
Bidirectional transport experiments. […] The transwell experiments were conducted following above-mentioned procedure.

Details of data set [15]: method as in not given. Conditions: stated without method; ref not given; cited from earlier work.
The mark [16] stands for this setting: LLC-PK1, pH 7.4, Papp A-B, LLC-PK1-MDR1, 2 µM, 2 h, mean ± s, n = 3.
Where [17] appears, read: LLC-PK1, pH 7.4, Papp A-B, LLC-PK1 MOCK, 2 h, mean ± s, n = 3, BLQ = below 2 nM.

For the compound `Cc1cccc([C@H](C)c2cnc[nH]2)c1C` [Dexmedetomidine], the “Kp, Brain” value in data set [1] was 0.80^a. Also, the Papp B→A – broadly, how fast a substance crosses the layer from the basolateral side – at 2 h, 2 µM in data set [2] (LLC-PK1, pH 7.4) was found to be 29.1 ± 3.62 ×10⁻⁶ cm/s; in data set [4] (LLC-PK1, pH 7.4) it was 35.2 ± 2.56 ×10⁻⁶ cm/s. The Papp A→B (usually the apparent permeability from the apical to the basolateral side of a cell layer) at 2 h, 2 µM in [2] (setting [16]) stood at 30.2 ± 3.4 ×10⁻⁶ cm/s; in [4] (setting [17]), 30.8 ± 0.61 ×10⁻⁶ cm/s. Also, in data set [3] (footnote a, ref Internal data), the “Protein binding in plasma” value is reported as 95.2^a %. Also, the “Protein binding in brain tissue” value in data set [5] is on record as 86.7^a %. Besides, the Kp uu in data set [6] was 2.21.

In turn, `C[C@H]1O[C@@H](O[C@H]2[C@@H](O)C[C@H](O[C@H]3[C@@H](O)C[C@H](O[C@H]4CC[C@@]5(C)[C@H](CC[C@@H]6[C@@H]5C[C@@H](O)[C@]5(C)[C@@H](C7=CC(=O)OC7)CC[C@]65O)C4)O[C@@H]3C)O[C@@H]2C)C[C@H](O)[C@@H]1O` [Digoxin] came in with a recovery in [7] of 109 ± 16%. Besides, the “increase in apical-to-basolateral (A→B) permeability” value in data set [8] (LLC-PK1-MDR1, with 5 μM tariquidar vs without) is on record as 3.97 fold. For the same compound, the Papp A→B at 2 h, 2 µM in data set [2] (LLC-PK1, pH 7.4) came out at 1.15 ± 0.28 ×10⁻⁶ cm/s; in data set [4] (setting [17]), 1.91 ± 0.13 ×10⁻⁶ cm/s. The Papp B→A at 2 h, 2 µM turned out to be 7.79 ± 0.91 ×10⁻⁶ cm/s in data set [2] (LLC-PK1, pH 7.4) and 1.75 ± 0.07 ×10⁻⁶ cm/s in data set [4] (LLC-PK1, pH 7.4). Further, the apparent permeability coefficient (Papp) (as a rule, a coefficient for how fast a substance crosses the barrier) at 2 h, 2 µM in data set [4] (LLC-PK1, pH 7.4) stood at 2.17 ×10⁻⁶ cm/s; in data set [4] (LLC-PK1, pH 7.4, with tariquidar 5 µM (P-gp inhibitor)), 2.1 ×10⁻⁶ cm/s. The compound also displayed a recovery at 2 h, 2 µM in data set [9] of 95 ± 5.24%.

In turn, `COc1cccc2c1C(=O)c1c(O)c3c(c(O)c1C2=O)C[C@@](O)(C(=O)CO)C[C@@H]3O[C@H]1C[C@H](N)[C@H](O)[C@H](C)O1` [Doxorubicin] yielded a Papp A→B at 2 h, 2 µM in data set [2] (LLC-PK1, pH 7.4) of 0.95 ± 0.16 ×10⁻⁶ cm/s. Besides, the Papp B→A at 2 h, 2 µM in [2] (LLC-PK1, pH 7.4) was determined as 3.47 ± 0.39 ×10⁻⁶ cm/s; in data set [4] (LLC-PK1, pH 7.4), 0.09 ± 0.01 ×10⁻⁶ cm/s. Besides, the fraction unbound – broadly, free concentration divided by total concentration – at 6 h, 5 µM in [10] is less than 0.01. The “Protein binding in plasma” value in data set [3] (footnote b, species not stated, ref https://go.drugbank.com) is reported as 75^b %. Besides, in [11], the “Papp A-B” value was “BLQ”. The compound also showed a Kp uu in data set [6] (SD, iv, 1 mg/kg) of less than 0.012. Also, the Kp in data set [6] (SD, iv, 1 mg/kg, Kp, Brain) is 0.291; in data set [6] (SD, iv, 1 mg/kg, Kp,uu,Brian) it was 0.012.

On to `COc1ccc2[nH]cc(CCNC(C)=O)c2c1` [Melatonin], for which the “Kp, Brain” value in [1] is reported as 0.5^a. The Papp A→B at 2 h, 2 µM worked out at 20.8 ± 1.43 ×10⁻⁶ cm/s in data set [2] (LLC-PK1, pH 7.4) and 22.4 ± 0.51 ×10⁻⁶ cm/s in [4] (setting [17]). Besides, the Papp B→A at 2 h, 2 µM in data set [2] (LLC-PK1, pH 7.4) was 21.7 ± 1.08 ×10⁻⁶ cm/s; in data set [4] (LLC-PK1, pH 7.4) it was 20.6 ± 0.92 ×10⁻⁶ cm/s. Also, the efflux ratio (in general, a quotient of directional permeabilities that is used to spot active efflux) at 2 h, 2 µM in [2] (LLC-PK1, pH 7.4) came out at 1.02; in data set [4] (LLC-PK1, pH 7.4), 0.92. Further, the “Protein binding in plasma” value in data set [3] (ref Le Quellec et al. [1994]) is given as 33.0%. Further, the recovery at 2 h, 2 µM was determined as 93.1 ± 1.67% in data set [12] and 105 ± 2.95% in [9]. Further, in data set [5], the “Protein binding in brain tissue” value is reported as 30.0^a %. The compound further yielded a Kp uu in data set [6] of 0.575.

Take `COCCc1ccc(OCC(O)CNC(C)C)cc1` (stereo not drawn) [Metoprolol]: in [8] (LLC-PK1-MDR1, positive control drugs run with each batch (n = 15), 2 µM), the “Papp A-B” value was “exceeded 20 × 10^−⁶ cm/s”. For the same compound, the recovery at 2 h, 2 µM in data set [12] was 116 ± 1.08%; in [9] it was 114 ± 8.95%. Further, the Papp B→A at 2 h, 2 µM in data set [4] (LLC-PK1, pH 7.4) is 24 ± 1.39 ×10⁻⁶ cm/s. Moreover, the apical-to-basolateral permeability (Papp A→B) at 2 h, 2 µM was more than 20 ×10⁻⁶ cm/s in data set [4] (LLC-PK1, pH 7.4, Papp (A-B), LLC-PK1 MOCK, positive control drugs run with each batch (n = 15)) and 30.1 ± 3.88 ×10⁻⁶ cm/s in data set [4] (setting [17]).

On to `CC(C)(C)NCC(O)c1ccc(O)c(CO)c1` (stereo not drawn) [Salbutamol], for which the “Kp, Brain” value in data set [1] was 0.021^a. The Papp B→A at 2 h, 2 µM in [2] (LLC-PK1, pH 7.4) came to 2.66 ± 0.21 ×10⁻⁶ cm/s; in data set [4] (LLC-PK1, pH 7.4), 0.21 ± 0.02 ×10⁻⁶ cm/s. Also, the efflux ratio at 2 h, 2 µM in [2] (LLC-PK1, pH 7.4, ER, LLC-PK1-MDR1, Papp (B-A)/Papp (A-B)) is 1.42. Moreover, the Papp A→B at 2 h, 2 µM in data set [2] (setting [16]) came out at 1.88 ± 0.35 ×10⁻⁶ cm/s. The values for the fraction unbound at 6 h, 5 µM in data set [10] and in [13] were 0.315 and 0.78, respectively. The results for the recovery at 2 h, 2 µM in data set [12] and in [9] were 98.2 ± 0.36% and 98.1 ± 2.21%, respectively. The “Papp A-B” value in data set [11] is listed as “BLQ”. In addition, in [6], the Kp uu turned out to be 0.01.

As to `CCN(CC)CCNC(=O)c1c(C)[nH]c(/C=C2\C(=O)Nc3ccc(F)cc32)c1C` [Sunitinib], the recovery in data set [7] is 116% and 97%. Besides, the Papp B→A at 2 h, 2 µM was found to be 21.8 ± 1.08 ×10⁻⁶ cm/s in [2] (LLC-PK1, pH 7.4) and 6.21 ± 0.2 ×10⁻⁶ cm/s in data set [4] (LLC-PK1, pH 7.4). Further, the Papp A→B at 2 h, 2 µM in [2] (setting [16]) was 2.23 ± 0.21 ×10⁻⁶ cm/s; in data set [4] (setting [17]), 9.31 ± 0.74 ×10⁻⁶ cm/s. The values for the fraction unbound at 6 h, 5 µM in [10] and in [13] were less than 0.01 and 0.017, respectively. In addition, the recovery at 2 µM in data set [14] (pH 7.4, Recovery after cell lysate extraction, intracellular drug included) was more than 80%; in data set [14] (pH 7.4, Recovery, bidirectional transport, uncorrected) it was less than 80%; in data set [14] (pH 7.4, with bafilomycin A1 1 µM (inhibitor of lysosomal function), Recovery, with 1 µM Bafilomycin A1, bidirectional transport), 80 to 120%. Further, the recovery at 2 h, 2 µM in data set [4] (LLC-PK1 MOCK cell monolayer (Transwell), pH 7.4, Recovery after correction of intracellular accumulation data, B-A, LLC-PK1 MOCK, cell lysate included, mean±SD, n=3) is 89.2 ± 8.92%. Also, the pKa (usually the negative logarithm of the acid dissociation constant) in data set [15] is given as more than 7. For the same compound, the Kp was determined as 0.965 in data set [6] (SD, iv, 1 mg/kg, Kp, Brain) and 0.563 in data set [6] (SD, iv, 1 mg/kg, Kp,uu,Brian).
